Assay results reported in publication PMC10487430, “Dual Modulator of ASIC Channels and GABAA Receptors from Thyme Alters Fear-Related Hippocampal Activity” (International Journal of Molecular Sciences, 2023).

Key:
[1] = molecular target: T1, α1β2γ2 GABAA receptor (Mus musculus, UniProt P22723+P62812+P63137); assay: two-electrode voltage clamp in Xenopus oocytes; potentiation of currents induced by […] GABA; assay type: cell-based
T1 construct: gene Gabra1; murine α1, β2, and γ2 GABAA subunits expressed in Xenopus laevis oocytes; with GABAA receptor β2 (Gabrb2) and γ2 (Gabrg2) subunits

[2] = molecular target: T2, rat ASIC1a (rASIC1a) (Rattus norvegicus, UniProt P55926); assay: two-electrode voltage clamp in Xenopus oocytes; inhibition of pH […].0-induced currents; assay type: cell-based
T2 construct: gene Asic1; homomeric rat ASIC1a expressed in Xenopus laevis oocytes
T2 sequence (P55926 1-526): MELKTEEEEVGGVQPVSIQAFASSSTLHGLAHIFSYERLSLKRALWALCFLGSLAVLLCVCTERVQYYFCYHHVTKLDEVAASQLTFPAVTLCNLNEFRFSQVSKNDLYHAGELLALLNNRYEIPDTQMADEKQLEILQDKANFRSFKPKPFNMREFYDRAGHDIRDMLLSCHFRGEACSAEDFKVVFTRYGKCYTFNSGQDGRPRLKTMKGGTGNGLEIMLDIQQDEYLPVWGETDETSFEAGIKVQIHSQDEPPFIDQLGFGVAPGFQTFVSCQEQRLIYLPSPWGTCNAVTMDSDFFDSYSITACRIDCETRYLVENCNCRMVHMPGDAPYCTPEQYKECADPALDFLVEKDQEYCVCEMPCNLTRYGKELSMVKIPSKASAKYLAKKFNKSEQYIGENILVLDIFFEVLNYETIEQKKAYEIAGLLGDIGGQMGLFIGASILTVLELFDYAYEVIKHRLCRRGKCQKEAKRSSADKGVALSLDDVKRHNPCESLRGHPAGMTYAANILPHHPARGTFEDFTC

T1 sequence (P62812 28-455): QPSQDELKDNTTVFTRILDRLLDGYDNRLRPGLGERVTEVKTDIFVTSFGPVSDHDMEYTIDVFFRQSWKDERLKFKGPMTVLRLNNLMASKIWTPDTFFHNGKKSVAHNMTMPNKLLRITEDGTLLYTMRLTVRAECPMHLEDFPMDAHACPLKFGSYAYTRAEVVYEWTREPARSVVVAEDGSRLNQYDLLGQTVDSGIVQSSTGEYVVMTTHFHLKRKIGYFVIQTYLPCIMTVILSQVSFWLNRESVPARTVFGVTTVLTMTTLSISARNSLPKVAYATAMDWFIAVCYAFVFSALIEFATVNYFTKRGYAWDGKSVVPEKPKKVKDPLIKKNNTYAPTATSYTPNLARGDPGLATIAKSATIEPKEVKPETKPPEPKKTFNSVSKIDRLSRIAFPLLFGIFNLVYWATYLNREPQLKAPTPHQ
T1 sequence (P63137 26-512): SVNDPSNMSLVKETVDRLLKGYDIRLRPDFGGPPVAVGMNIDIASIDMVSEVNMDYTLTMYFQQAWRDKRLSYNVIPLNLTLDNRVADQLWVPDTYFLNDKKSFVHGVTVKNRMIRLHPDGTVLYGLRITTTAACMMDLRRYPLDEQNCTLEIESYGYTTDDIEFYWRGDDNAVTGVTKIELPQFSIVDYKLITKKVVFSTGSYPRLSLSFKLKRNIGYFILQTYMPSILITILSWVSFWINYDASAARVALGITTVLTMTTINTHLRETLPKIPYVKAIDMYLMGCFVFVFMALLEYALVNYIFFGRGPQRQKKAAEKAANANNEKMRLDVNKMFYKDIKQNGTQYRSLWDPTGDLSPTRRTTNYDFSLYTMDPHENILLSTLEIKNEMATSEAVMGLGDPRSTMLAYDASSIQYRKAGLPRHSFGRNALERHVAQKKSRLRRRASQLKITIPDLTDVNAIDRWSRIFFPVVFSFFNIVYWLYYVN
T1 sequence (P22723 39-474): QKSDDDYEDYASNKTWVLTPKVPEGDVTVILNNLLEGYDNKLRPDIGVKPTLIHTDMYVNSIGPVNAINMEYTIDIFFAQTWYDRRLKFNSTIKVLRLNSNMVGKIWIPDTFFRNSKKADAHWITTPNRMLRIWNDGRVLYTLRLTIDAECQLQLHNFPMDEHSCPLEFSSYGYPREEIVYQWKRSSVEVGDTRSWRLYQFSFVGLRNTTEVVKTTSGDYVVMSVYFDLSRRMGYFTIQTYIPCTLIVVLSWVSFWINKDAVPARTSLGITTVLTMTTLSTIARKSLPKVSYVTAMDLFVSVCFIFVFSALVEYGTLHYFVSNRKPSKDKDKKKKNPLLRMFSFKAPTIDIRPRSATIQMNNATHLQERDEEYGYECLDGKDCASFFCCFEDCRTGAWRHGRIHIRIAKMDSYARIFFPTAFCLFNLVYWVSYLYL

O=C(O)C[C@H](C(=O)O)[C@H](OC(=O)[C@@H]1C(C(=O)O[C@@H](C(=O)O)[C@@H](CC(=O)O)C(=O)O)=Cc2cc(O)c(O)cc2[C@H]1c1ccc(O)c(O)c1)C(=O)O [sevanol]
EC50 [1]: 0.56 ± 0.04 µM | IC50 [2]: 198 ± 19 µM
